Source: patent publication EP0351685A2, “Process for preparing n15-alkyl derivatives of teicoplanin compounds” (GRUPPO LEPETIT S.p.A., priority 1988, dated 1990)
≈ marks a conversion by molar mass, not a printed value.

Columns and labels:
Assay in all cases: In vitro antibacterial activity (MIC), standard agar-dilution test
Assay type in all cases: cell-based
E. coli SKF 12140 = conditions: Escherichia coli, SKF12140, inoculum about 10⁴ CFU/ml, 18-24 h at 37°C
[1] = system: P. vulgaris X19H ATCC 881; conditions: Proteus vulgaris, ATCC881, inoculum about 10⁴ CFU/ml, 18-24 h at 37°C
S. pneumoniae UC41 = conditions: Streptococcus pneumoniae, inoculum about 10⁴ CFU/ml, 18-24 h at 37°C
Description: (§1) Isosensitest broth (Oxoid) and Todd-Hewitt broth (Difco) are used for growing staphylococci and streptococci, respectively. Broth cultures are diluted so that the final inoculum is about 10⁴ colony forming units/ml (CFU/ml).

S. haemolyticus L 602 = conditions: Staphylococcus haemolyticus, L602, inoculum about 10⁴ CFU/ml, 18-24 h at 37°C
Description: as §1

S. aureus Tour = conditions: Staphylococcus aureus, inoculum about 10⁴ CFU/ml, 18-24 h at 37°C
Description: as §1

[2] = system: S. epidermidis ATCC 12228; conditions: Staphylococcus epidermidis, ATCC12228, inoculum about 10⁴ CFU/ml, 18-24 h at 37°C
Description: as §1

S. faecalis ATCC 7080 = conditions: Enterococcus faecalis, ATCC7080, inoculum about 10⁴ CFU/ml, 18-24 h at 37°C
Description: as §1

S. pyogenes C203 = conditions: Streptococcus pyogenes, inoculum about 10⁴ CFU/ml, 18-24 h at 37°C
Description: as §1

P. aeruginosa ISM = conditions: Pseudomonas aeruginosa, inoculum about 10⁴ CFU/ml, 18-24 h at 37°C
[3] = S. aureus Tour + 30% bovine serum

Row | MIC (E. coli SKF 12140) [µg/mL] | MIC [1] [µg/mL] | MIC (S. pneumoniae UC41) [µg/mL] | MIC (S. aureus Tour; [3]) [µg/mL] | MIC (S. aureus Tour; S. aureus Tour) [µg/mL] | MIC [2] [µg/mL] | MIC (S. faecalis ATCC 7080) [µg/mL] | MIC (S. pyogenes C203) [µg/mL] | MIC (P. aeruginosa ISM) [µg/mL] | SMILES | MIC (S. haemolyticus L 602) [µg/mL]
1 | > 128 | > 128 | 0.12 (≈ 0.0978 µM) | 0.25 | 0.06 (≈ 0.0489 µM) | 0.03 (≈ 0.0245 µM) | 0.12 (≈ 0.0978 µM) | 0.06 (≈ 0.0489 µM) | > 128 | CCNC1C(=O)NC2Cc3ccc(c(Cl)c3)Oc3cc4cc(c3O)Oc3ccc(cc3Cl)C(O)C3NC(=O)C(NC(=O)C4NC(=O)C(NC2=O)c2cc(O)cc(c2)Oc2cc1ccc2O)c1ccc(O)c(c1)-c1c(O)cc(O)cc1C(C(=O)O)NC3=O (stereo not shown) [Compound 9] | 0.25 (≈ 0.204 µM)
2 | > 128 | > 128 | 0.06 (≈ 0.0474 µM) | 0.5 | 0.06 (≈ 0.0474 µM) | 0.03 (≈ 0.0237 µM) | 0.25 (≈ 0.197 µM) | 0.12 (≈ 0.0947 µM) | > 128 | O=C1NC2C(=O)NC3C(=O)NC4C(=O)NC(C(=O)NC(C(=O)O)c5cc(O)cc(O)c5-c5cc4ccc5O)C(O)c4ccc(c(Cl)c4)Oc4cc3cc(c4O)Oc3ccc(cc3Cl)CC1NC(=O)C(NC1CCCC1)c1ccc(O)c(c1)Oc1cc(O)cc2c1 (stereo not shown) [Compound 11] | –
